Measured values published in patent US5770573A, “CS-1 peptidomimetics, compositions and methods of using the same” (Cytel Corporation, priority 1995, dated 1998).
Square brackets hold non-standard residues; d marks the D form. Peptide text beside a SMILES is read from it. * marks the point of attachment. ξ: configuration not given here. Phe(4-NO2) = N[C@@H](Cc1ccc([N+](=O)[O-])cc1)C(=O)O; Biotin = O=C1N[C@H]2[C@H](CS[C@H]2CCCCC(=O)*)N1; Quinoline3carbonyl = O=C(c1cnc2ccccc2c1)*; Pyrazinecarbonyl = O=C(c1cnccn1)*; Quinaldoyl = O=C(c1ccc2ccccc2n1)*; Brosyl = O=S(=O)(c1ccc(Br)cc1)*; Cha = N[C@@H](CC1CCCCC1)C(=O)O; X15 = O=S(=O)(c1cccc2cccnc12)*; ξAtc = NC1(C(=O)O)CCc2ccccc2C1; NMeL = CN[C@@H](CC(C)C)C(=O)O; Phg = N[C@H](C(=O)O)c1ccccc1; NMeV = CN[C@H](C(=O)O)C(C)C; X19 = O=C(Cc1ccc(Br)cc1)*; Nle = CCCC[C@H](N)C(=O)O; Nva = CCC[C@H](N)C(=O)O; PhAc = O=C(Cc1ccccc1)*; X18 = O=C(c1cn[nH]c1)*; Ahx = NCCCCCC(=O)O

biological target: VLA-4 (Homo sapiens, UniProt P05556+P13612); test: In vitro binding inhibition of 51Cr-labeled Jurkat cells to solid phase-bound CS-1 compound (SEQ ID NO:1); type: cell-based; parameters: inflammatory cells that contain the VLA-4 receptor [Jurkat cells; host or cells: Jurkat (human T lymphoblastic line); conditions: not given
Experimental: Binding inhibition is measured here as a concentration of compound that inhibits one-half the binding between a standard number of Jurkat cells and a standard amount of CS-1 compound bound to the surface of a microtiter plate well. Those concentrations are conveniently expressed as IC50 values, smaller numbers indicating a lower concentration required to inhibit 50 percent binding and therefore greater potency. Further specifics of this assay are provided hereinafter.
Jurkat cells (ATCC TIB 152), a human T lymphoblastic line, labeled with ^51 chromium were used to assay in vitro binding inhibition provided by various compounds discussed herein.
The plates were prepared as follows: The 25-mer CS-1 compound (SEQ ID NO:1) dissolved at 0.5-1 μg/ml in a buffer of 0.1M NaHCO3 at pH 9.5 that also contained 10 μg/ml of bovine serum albumin (BSA) or a conjugate of the CS-1 compound linked to […] (CS-1-OVA) dissolved at 1-2.5 μg/ml in the same buffer was used as the substrate. Each well of the microtiter plates was coated with 50 μl of substrate or buffer alone for controls. The wells were permitted to dry out completely and were then rinsed twice with PBS at pH 7.4. Non-specific binding sites of each well were then blocked using 200 μl per well of RPMI/1 percent BSA for two hours at room temperature.
Jurkat cells (3-5×10^6 cells) were placed into a 15 ml Falcon™ round-bottom tube with a cap. The tube was centrifuged, and the extra medium was then removed.
Two hundred microliters of a ^51 Cr labeling solution were added to the centrifuged cells and maintained in contact with the cells for 90-120 minutes in a warm room. […] Longer contact times provide a greater amount of labeling but lower cell viability.
The labeled cells are washed with (i) complete medium, (ii) 1 mM EDTA/PBS and then (iii) RPM1/1 percent BSA free of serum components. The cells are centrifuged after each washing. The cells are finally resuspended in serum-free RPMI/1 percent BSA at a concentration of 1×10^6 viable cells/ml, which provides a concentration that is diluted by one-half in the assay.
Inhibitor compounds are prepared as stock solutions at 20 mg/ml in DMSO in 1.5 ml cryogenic screwcap vials, and were stored at -70° C. Using Flow™ round-bottom or V-bottom microtiter plates, the inhibitor compounds were prepared at twice the assay concentration in RPMI/1 percent BSA at 60 μl/well.
Four initial dilutions were typically used.
The ^51 Cr-labeled cells ([…] at 60 μl/well) were then admixed with the diluted compound solutions. The admixtures were maintained at room temperature (about 22° C.) for 30 minutes.
One hundred microliters of each inhibitor compound/cell admixture were transferred to the substrate-coated wells. This was done in triplicate for each dilution. The resulting plates were incubated for 30 minutes at 37° C. and then washed gently three times with RPMI/1 percent BSA at 200 μl/well. Binding was observed microscopically, particularly after the second wash.
The bound cells were then lysed by the addition of a 0.5 percent solution of sodium dodecylsulfate in water at 100 μl/well. The resulting solutions were then processed for counting and calculation of IC50 values following usual procedures.
The data of Table 1 are normalized to the binding of SEQ ID NO: 3. […] Multiple assays for the same compound were averaged.

Chain of VLA-4 (P13612 34-1032): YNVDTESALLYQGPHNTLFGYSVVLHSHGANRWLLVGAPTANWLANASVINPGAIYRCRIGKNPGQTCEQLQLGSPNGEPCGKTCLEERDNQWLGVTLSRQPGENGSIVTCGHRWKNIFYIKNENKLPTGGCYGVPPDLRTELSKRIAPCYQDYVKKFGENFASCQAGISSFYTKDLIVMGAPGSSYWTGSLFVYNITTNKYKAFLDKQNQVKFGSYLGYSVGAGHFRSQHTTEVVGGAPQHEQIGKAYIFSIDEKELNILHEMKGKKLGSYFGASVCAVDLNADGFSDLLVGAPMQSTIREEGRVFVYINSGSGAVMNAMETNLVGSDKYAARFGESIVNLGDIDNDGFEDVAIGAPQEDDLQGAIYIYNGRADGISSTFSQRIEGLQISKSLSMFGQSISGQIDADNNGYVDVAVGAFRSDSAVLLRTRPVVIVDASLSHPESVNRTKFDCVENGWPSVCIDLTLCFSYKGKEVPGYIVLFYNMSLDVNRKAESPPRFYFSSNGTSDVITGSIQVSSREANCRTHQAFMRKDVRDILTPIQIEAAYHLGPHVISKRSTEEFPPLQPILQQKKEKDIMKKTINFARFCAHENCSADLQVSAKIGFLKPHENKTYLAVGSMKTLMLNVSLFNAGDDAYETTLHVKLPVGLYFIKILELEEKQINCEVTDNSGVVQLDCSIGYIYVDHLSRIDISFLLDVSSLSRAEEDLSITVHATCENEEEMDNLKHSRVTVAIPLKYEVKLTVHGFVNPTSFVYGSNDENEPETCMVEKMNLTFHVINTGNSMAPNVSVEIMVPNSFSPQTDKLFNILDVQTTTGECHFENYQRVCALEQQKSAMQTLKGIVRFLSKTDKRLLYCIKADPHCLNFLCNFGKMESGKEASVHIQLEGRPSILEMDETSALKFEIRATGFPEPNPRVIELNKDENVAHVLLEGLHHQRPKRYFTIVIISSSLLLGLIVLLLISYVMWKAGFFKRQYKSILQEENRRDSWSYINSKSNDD
Chain of VLA-4 (P05556 21-798): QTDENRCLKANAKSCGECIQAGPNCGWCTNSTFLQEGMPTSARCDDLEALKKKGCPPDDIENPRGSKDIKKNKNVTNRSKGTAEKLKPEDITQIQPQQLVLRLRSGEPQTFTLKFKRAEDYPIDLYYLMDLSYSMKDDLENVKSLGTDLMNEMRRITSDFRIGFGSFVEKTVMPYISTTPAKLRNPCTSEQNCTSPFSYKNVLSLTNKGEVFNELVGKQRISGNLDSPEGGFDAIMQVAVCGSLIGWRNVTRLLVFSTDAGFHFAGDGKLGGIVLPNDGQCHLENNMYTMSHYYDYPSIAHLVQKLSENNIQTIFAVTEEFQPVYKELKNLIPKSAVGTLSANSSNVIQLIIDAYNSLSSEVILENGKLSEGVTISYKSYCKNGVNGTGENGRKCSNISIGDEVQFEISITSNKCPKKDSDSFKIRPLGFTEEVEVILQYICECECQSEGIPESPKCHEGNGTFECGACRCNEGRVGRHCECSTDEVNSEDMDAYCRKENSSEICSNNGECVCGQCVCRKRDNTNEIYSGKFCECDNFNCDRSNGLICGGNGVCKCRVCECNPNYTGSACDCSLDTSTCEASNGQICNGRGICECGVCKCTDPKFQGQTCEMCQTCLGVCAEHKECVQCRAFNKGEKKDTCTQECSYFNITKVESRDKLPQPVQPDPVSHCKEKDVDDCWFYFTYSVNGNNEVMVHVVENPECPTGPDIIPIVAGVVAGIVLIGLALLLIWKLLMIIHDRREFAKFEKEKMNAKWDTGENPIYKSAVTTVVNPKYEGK

Compound	Relative Potency	Relative Potency (prodrug compound)
CC(C)C[C@@H](C(=O)N[C@@H](CC(=O)O)C(=O)N[C@@H](Cc1ccccc1)C(=O)N1CCC[C@@H]1C(N)=O)n1c(=O)[nH]c2ccccc2c1=O [896.63]	43.7	–
CC(C)C[C@H](NC(=O)C(C)(C)C)C(=O)N[C@@H](CC(=O)O)C(=O)N[C@H](C(=O)N1CCC[C@H]1C(N)=O)C(C)C [926.01]	3.29	–
CC[C@@H](C)[C@@H](N)C(=O)N[C@@H](CC(C)C)C(=O)N[C@@H](CC(=O)O)C(=O)N[C@H](C(=O)N1CCC[C@@H]1C(N)=O)C(C)C [926.03]	1.83	–
CC(C)C[C@H](NC(=O)[C@@H](N)Cc1ccccc1)C(=O)N[C@@H](CC(=O)O)C(=O)N[C@H](C(=O)N1CCC[C@@H]1C(N)=O)C(C)C [926.04] (H-FLDV[dP]-NH2)	1.88	–
CC(C)C[C@H](NC(=O)[C@H](N)Cc1ccccc1)C(=O)N[C@@H](CC(=O)O)C(=O)N[C@H](C(=O)N1CCC[C@@H]1C(N)=O)C(C)C [926.05] (H-[dF]LDV[dP]-NH2)	.94	–
CC[C@H](C)[C@H](N)C(=O)N[C@@H](Cc1ccccc1)C(=O)N[C@@H](CC(=O)O)C(=O)N[C@H](C(=O)N1CCC[C@H]1C(N)=O)C(C)C [926.07] (H-IFDVP-NH2)	.08	–
CC[C@H](C)[C@H](N)C(=O)N[C@@H](CC1CCCCC1)C(=O)N[C@@H](CC(=O)O)C(=O)N[C@H](C(=O)N1CCC[C@H]1C(N)=O)C(C)C [926.08] (H-I[Cha]DVP-NH2)	.47	–
CCCC[C@H](NC(=O)[C@@H](N)[C@@H](C)CC)C(=O)N[C@@H](CC(=O)O)C(=O)N[C@H](C(=O)N1CCC[C@H]1C(N)=O)C(C)C [926.09] (H-I[Nle]DVP-NH2)	.41	–
CCC[C@H](NC(=O)[C@@H](N)[C@@H](C)CC)C(=O)N[C@@H](CC(=O)O)C(=O)N[C@H](C(=O)N1CCC[C@H]1C(N)=O)C(C)C [926.10] (H-I[Nva]DVP-NH2)	.13	–
CC[C@H](C)[C@H](N)C(=O)N(C)[C@@H](CC(C)C)C(=O)N[C@@H](CC(=O)O)C(=O)N[C@H](C(=O)N1CCC[C@H]1C(N)=O)C(C)C [926.11] (H-I[NMeL]DVP-NH2)	.06	–
CC[C@H](C)[C@H](N)C(=O)N[C@@H](CC(C)C)C(=O)N[C@@H](CC(=O)O)C(=O)N[C@@H](Cc1ccccc1)C(=O)N1CCC[C@H]1C(N)=O [926.12] (H-ILDFP-NH2)	1.99	–
CC[C@H](C)[C@H](N)C(=O)N[C@@H](CC(C)C)C(=O)N[C@@H](CC(=O)O)C(=O)N[C@@H](CCSC)C(=O)N1CCC[C@H]1C(N)=O [926.13] (H-ILDMP-NH2)	.3	–
CC[C@H](C)[C@H](N)C(=O)N[C@@H](CC(C)C)C(=O)N[C@@H](CC(=O)O)C(=O)N[C@@H](CC1CCCCC1)C(=O)N1CCC[C@H]1C(N)=O [926.14] (H-ILD[Cha]P-NH2)	.13	–
CCCC[C@H](NC(=O)[C@H](CC(=O)O)NC(=O)[C@H](CC(C)C)NC(=O)[C@@H](N)[C@@H](C)CC)C(=O)N1CCC[C@H]1C(N)=O [926.15] (H-ILD[Nle]P-NH2)	.08	–
CCC[C@H](NC(=O)[C@H](CC(=O)O)NC(=O)[C@H](CC(C)C)NC(=O)[C@@H](N)[C@@H](C)CC)C(=O)N1CCC[C@H]1C(N)=O [926.16] (H-ILD[Nva]P-NH2)	.34	–
CC[C@H](C)[C@H](N)C(=O)N[C@@H](CC(C)C)C(=O)N[C@@H](CC(=O)O)C(=O)N[C@H](C(=O)N1CCC[C@H]1C(N)=O)[C@@H](C)CC [926.17] (H-ILDIP-NH2)	.21	–
CC[C@H](C)[C@H](N)C(=O)N[C@@H](CC(C)C)C(=O)N[C@@H](CC(=O)O)C(=O)N(C)[C@H](C(=O)N1CCC[C@H]1C(N)=O)C(C)C [926.18] (H-ILD[NMeV]P-NH2)	0	–
CC(C)C[C@H](N)C(=O)N[C@@H](CC(=O)O)C(=O)N[C@H](C(N)=O)C(C)C [926.29] (H-Leu-Asp-Val-NH2)	0.01	–
CC(C)C[C@H](N)C(=O)N[C@@H](CC(=O)O)C(=O)N[C@@H](Cc1ccccc1)C(N)=O [926.31] (H-Leu-Asp-Phe-NH2)	0.01	–
CC(=O)N[C@@H](CC(C)C)C(=O)N[C@@H](CC(=O)O)C(=O)N[C@@H](Cc1ccccc1)C(N)=O [926.32] (Ac-Leu-Asp-Phe-NH2)	.47	–
CC(C)C[C@H](NC(=O)c1cnccn1)C(=O)N[C@@H](CC(=O)O)C(=O)N[C@@H](Cc1ccccc1)C(=O)N1CCC[C@@H]1C(N)=O [951.02] (Pyrazinecarbonyl-LDF[dP]-NH2)	19.4	–
CC(C)C[C@H](NC(=O)c1cn[nH]c1)C(=O)N[C@@H](CC(=O)O)C(=O)N[C@@H](Cc1ccccc1)C(=O)N1CCC[C@@H]1C(N)=O [951.03] (X18-LDF[dP]-NH2)	28.2	–
CC(C)C[C@H](NC(=O)c1cnc2ccccc2c1)C(=O)N[C@@H](CC(=O)O)C(=O)N[C@@H](Cc1ccccc1)C(=O)N1CCC[C@@H]1C(N)=O [951.05] (Quinoline3carbonyl-LDF[dP]-NH2)	56.3	–
CC(C)C[C@H](NC(=O)c1ccc2ccccc2n1)C(=O)N[C@@H](CC(=O)O)C(=O)N[C@@H](Cc1ccccc1)C(=O)N1CCC[C@@H]1C(N)=O [951.06] (Quinaldoyl-LDF[dP]-NH2)	8.97	–
CC(C)C[C@H](NS(=O)(=O)c1cccc2cccnc12)C(=O)N[C@@H](CC(=O)O)C(=O)N[C@@H](Cc1ccccc1)C(=O)N1CCC[C@@H]1C(N)=O [951.07] (X15-LDF[dP]-NH2)	1.57	–
CC(C)C[C@H](NC(=O)Cc1ccc(Br)cc1)C(=O)N[C@@H](CC(=O)O)C(=O)N[C@@H](Cc1ccccc1)C(=O)N1CCC[C@@H]1C(N)=O [951.08] (X19-LDF[dP]-NH2)	6.26	–
CC(C)C[C@H](NS(=O)(=O)c1ccc(Br)cc1)C(=O)N[C@@H](CC(=O)O)C(=O)N[C@@H](Cc1ccccc1)C(=O)N1CCC[C@@H]1C(N)=O [951.10] (Brosyl-LDF[dP]-NH2)	.63	–
CC(C)C[C@H](NC(=O)[C@H]1CCCN1)C(=O)N[C@@H](CC(=O)O)C(=O)N[C@@H](Cc1ccccc1)C(=O)N1CCC[C@@H]1C(N)=O [951.11] (H-[dP]LDF[dP]-NH2)	2.5	–
CC(C)C[C@H](NC(=O)[C@@H]1CCCN1)C(=O)N[C@@H](CC(=O)O)C(=O)N[C@@H](Cc1ccccc1)C(=O)N1CCC[C@@H]1C(N)=O [951.12] (H-PLDF[dP]-NH2)	61.8	–
CC(C)C[C@H](NC(=O)[C@H](Cc1ccccc1)NC(=O)CCCCCNC(=O)CCCC[C@@H]1SC[C@@H]2NC(=O)N[C@@H]21)C(=O)N[C@@H](CC(=O)O)C(=O)N[C@@H](Cc1ccccc1)C(=O)N1CCC[C@@H]1C(N)=O [951.13] ({Biotin-Ahx}-FLDF[dP]-NH2)	–	74.5

same assay, conditions: binding inhibition potency relative to standard compound of SEQ ID NO:3 = 1 (normalized IC50); about one-tenth or less assigned zero

Compound	Relative Potency
CC(C)C[C@H](NC(=O)Cc1ccccc1)C(=O)N[C@@H](CC(=O)O)C(=O)NC1(C(=O)N2CCC[C@@H]2C(N)=O)CCc2ccccc2C1 (stereo partly drawn) [896.65] (PhAc-LD[ξAtc][dP]-NH2)	1.25
CC(C)C[C@H](NC(=O)Cc1ccccc1)C(=O)N[C@@H](CC(=O)O)C(=O)N[C@@H](Cc1ccc([N+](=O)[O-])cc1)C(=O)N1CCC[C@@H]1C(N)=O [896.68] (PhAc-LD[Phe(4-NO2)][dP]-NH2)	39.9
CC(C)C[C@H](NC(=O)Cc1ccccc1)C(=O)N[C@@H](CC(=O)O)C(=O)N[C@H](C(=O)N1CCC[C@@H]1C(N)=O)c1ccccc1 [896.69] (PhAc-LD[Phg][dP]-NH2)	61
CC(C)C[C@H](NC(=O)Cc1ccccc1)C(=O)N[C@@H](CC(=O)O)C(=O)N[C@@H](CO)C(=O)N1CCC[C@@H]1C(N)=O [896.72] (PhAc-LDS[dP]-NH2)	16.9
CC(C)C[C@H](NC(=O)c1ccccc1)C(=O)N[C@@H](CC(=O)O)C(=O)N[C@H](C(=O)N1CCC[C@@H]1C(N)=O)C(C)C [926.02]	9.6
CC(=O)N[C@@H](CC(C)C)C(=O)N[C@@H](CC(=O)O)C(=O)N[C@H](C(N)=O)C(C)C [926.30] (Ac-Leu-Asp-Val-NH2)	.63
